Measurements: patent USRE45173E1, “Inhibitors of CYP 17” (Novartis AG, priority 2009, dated 2014)

Target: rat CYP17 lyase (Rattus norvegicus (Rat), UniProt P11715)
Test: rat CYP 17 Lyase model, rat testes microsomes as the source
Type: biochemical
Conditions: for inhibition at 0.1 µM: 100 nM compound, read-out: rCYP17 Lyase % Inh @ 100 nM; for IC50: rat testes microsomes, substrate 0.5 μM, read-out: Lyase IC 50 nM Human/Rat (Rat)
Procedure: For routine screening, the assay was set up with 16 μg of enzyme in 50 μL reaction volume. 17α-hydroxy pregnenolone [21-3H] was added to a final concentration of 0.25 μM. NADPH is used at a final concentration of 4.2 mM. Total reaction volume was made up to 50 μL with 50 mM Phosphate buffer pH 7.5. The reaction mixture was incubated at room temperature for 90 minutes with gentle shaking. The reaction was stopped by the addition of 100 μL of buffer. 500 μL of 5% freshly prepared activated charcoal was added to the solution and mixed well by vortexing. The samples were centrifuged at 17568×g for 5 minutes. (14000 rpm). The supernatant was carefully transferred to fresh tube and 1.3 mL of scintillation fluid was added, mixed by vortexing.
The radioactivity was measured in a 1450 MicroBeta TriLux™ scintillation counter from Wallac-Perkin Elmer®, USA. The measurements were carried out in 2.0 mL Eppendorforf™ tubes. Each tube was counted for 1 minute. The amount of tritiated acetic acid released is proportional to the lyase activity. Percent lyase activity in presence of inhibitor was calculated using the formula given below.
[formula] • Sample: Enzyme reaction in presence of inhibitor. • Positive control: Enzyme reaction without inhibitor but containing DMSO at 1% final concentration. • Blank-Contains all reagents except enzyme. % Inhibition=100%−% Lyase activity
For IC50 determination, the % inhibition was plotted as a function of inhibitor concentration. The data was fitted to sigmoidal equation using Graphpad Prism® software IV to generate IC50 values.
For the rat CYP 17 Lyase Model:
The same procedure described above was used but using rat testes microsomes as the source and with a substrate concentration of 0.5 μM.

Chain of rat CYP17 lyase (P11715 whole entry): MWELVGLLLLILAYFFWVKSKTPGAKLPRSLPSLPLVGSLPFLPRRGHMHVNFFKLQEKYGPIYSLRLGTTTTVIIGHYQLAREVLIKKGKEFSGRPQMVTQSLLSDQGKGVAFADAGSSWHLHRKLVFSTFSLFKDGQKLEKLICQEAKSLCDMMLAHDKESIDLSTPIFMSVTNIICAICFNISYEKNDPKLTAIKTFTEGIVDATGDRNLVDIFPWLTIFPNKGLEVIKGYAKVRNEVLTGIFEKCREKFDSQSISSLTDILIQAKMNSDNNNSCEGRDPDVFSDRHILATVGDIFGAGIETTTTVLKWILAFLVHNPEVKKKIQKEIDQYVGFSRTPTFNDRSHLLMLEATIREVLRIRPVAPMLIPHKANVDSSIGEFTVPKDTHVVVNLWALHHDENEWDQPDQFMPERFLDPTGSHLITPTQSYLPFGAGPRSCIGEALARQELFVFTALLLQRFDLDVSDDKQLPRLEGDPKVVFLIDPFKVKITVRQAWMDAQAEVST

| SMILES | inhibition at 0.1 µM | IC50 |
| --- | --- | --- |
| CCn1ccc2cc(N3CCN(c4cccnc4)C3=O)ccc21 [Example 2A, 1-(1-Ethyl-1H-indol-5-yl)-3-pyridin-3-yl-imidazolidin-2-one] | 23% |  |
| COc1ccc2cc(N3CCN(c4cccnc4)C3=O)ccc2c1 [Example 3A, 1-(6-Methoxy-naphthalen-2-yl)-3-pyridin-3-O-imidazolidin-2-one] | 31% |  |
| CCN1C(=O)CCc2cc(N3CCN(c4cccnc4)C3=O)ccc21 [Example 5A, 1-Ethyl-6-(2-oxo-3-pyridin-3-yl-imidazolidin-1-yl)-3,4-dihydro-1H-quinolin-2-one] | 51% |  |
| Cc1c(N2CCN(c3cccnc3)C2=O)sc2ccc(F)cc12 [Example 6A, 1-(5-Fluoro-3-methyl-benzo[b]thiophen-2-yl)-3-pyridin-3-yl-imidazolidin-2-one] | 51% | 157 nM |
| O=C1N(c2cccnc2)CCN1c1ccc2sccc2c1 [Example 7A, 1-Benzo[b]thiophen-5-yl-3-pyridin-3-yl-imidazolidin-2-one] | 87% | 16 nM |
| O=C1N(c2cccnc2)CCN1c1ccc2ncccc2c1 [Example 8A, 1-Pyridin-3-yl-3-quinolin-6-yl-imidazolidin-2-one] | 48% |  |
| O=C1N(c2cccnc2)CCN1c1ccc2scnc2c1 [Example 9A, 1-Benzothiazol-5-yl-3-pyridin-3-yl-imidazolidin-2-one] | 18% |  |
| O=C1N(c2cccnc2)CCCN1c1ccc2ccccc2c1 [Example 10A, 1-Naphthalen-2-yl-3-pyridin-3-yl-tetrahydro-pyrimidin-2-one] | 11% |  |
| Cc1cc(Cl)nc2ccc(N3CCN(c4cccnc4)C3=O)cc12 [Example 11A, 1-(2-Chloro-4-methyl-quinolin-6-yl)-3-pyridin-3-yl-imidazolidin-2-one] | 59% | 97 nM |
| O=C1N(c2cccnc2)CCN1c1ccc2c(c1)CC/C2=N\O [Example 12A] | 17% |  |
| O=C1N(c2cccnc2)CCCN1c1ccc2sccc2c1 [Example 13A, 1-Benzo[b]thiophen-5-yl-3-pyridin-3-yl-tetrahydro-pyrimidin-2-one] | 9% |  |
| CCN1C(=O)CCc2cc(N3CCN(c4cnccc4C)C3=O)ccc21 [Example 17A, 1-Ethyl-6-[3-(4-methyl-pyridin-3-yl)-2-oxo-imidazolidin-1-yl]-3,4-dihydro-1H-quinolin-2-one] | 83% | 21 nM |
| Cc1ccncc1N1CCN(c2ccc(-c3ccccc3)cc2)C1=O [Example 19A, 1-Biphenyl-4-O-3-(4-methyl-pyridin-3-yl)-imidazolidin-2-one] | 91% | 11 nM |
| CCn1c(=O)cc(C)c2cc(N3CCN(c4cnccc4C)C3=O)ccc21 [Example 20A, 1-Ethyl-4-methyl-6-[3-(4-methyl-pyridin-3-yl)-2-oxo-imidazolidin-1-yl]-1-1H-quinolin-2-one] | 69% | 56 nM |
| Cc1ccncc1N1CCN(c2ccc3nc(Cl)cc(C)c3c2)C1=O [Example 21A, 1-(2-Chloro-4-methyl-quinolin-6-yl)-3-(4-methyl-pyridin-3-yl)-imidazolidin-2-one] | 98% | 5 nM |
| Cc1ccncc1N1CCN(c2ccc3[nH]c(=O)cc(C)c3c2)C1=O [Example 22A, 4-Methyl-6-[3-(4-methyl-pyridin-3-yl)-2-oxo-imidazolodin-1yl]1H-quinolin-2-one] | 85% | 24 nM |
| Cc1ccncc1N1CCN(c2ccc3ccccc3n2)C1=O [Example 23A, 1-(4-Methyl-pyridin-3-yl)-3-quinolin-2-yl-imidazolidin-2-one] | 85% | 20 nM |
| COc1ccc2cc(N3CCN(c4cnccc4C)C3=O)ccc2c1 [Example 25A, 1-(6-Methoxy-naphthalen-2-yl)-3-(4-methyl-pyridin-3-yl)-imidazolidin-2-one] | 89% |  |
